Results taken from paper PMC5854701 (Scientific Reports, 2018).

Legend:
Experiment in all cases: microbe, parasite or virus in culture
[1] = tested on: A/Washington/29/2009 (H1N1)
[2] = tested on: A/California/07/2009 (H1N1)
A/Texas/04/2009 (H1N1) = tested on: A/Texas/04/2009 (H1N1)
[3] = tested on: A/Denmark/524/2009 (H1N1)
[4] = tested on: B/Memphis/20/1996 (Yamagata); conditions: Influenza B virus
[5] = tested on: A/Denmark/528/2009 (H1N1)
[6] = tested on: B/Phuket/3073/2013 (Yamagata); conditions: Influenza B virus
[7] = tested on: A/Switzerland/9715293/2013 (H3N2)
[8] = tested on: B/Brisbane/60/2008 (Victoria); conditions: Influenza B virus
[9] = tested on: B/Utah/09/2014 (Yamagata); conditions: Influenza B virus
[10] = tested on: B/Wisconsin/1/2010 (Yamagata); conditions: Influenza B virus

SMILES	EC50 [1] [nM]	EC50 [2] [nM]	EC50 (A/Texas/04/2009 (H1N1)) [nM]	EC50 [3] [nM]	EC50 [4] [nM]	EC50 [5] [nM]	EC50 [6] [nM]	EC50 [7] [nM]	EC50 [8] [nM]	EC50 [9] [nM]	EC50 [10] [nM]
C[C@@H](c1ccccc1)n1nnnc1[C@H](c1ccsc1)N1CCC(n2c(=O)[nH]c3ccccc32)CC1 [Compound 12a, 1‐{1‐[(S)‐{1‐[(1 S)‐1‐phenylethyl]‐1 H‐1,2,3,4‐tetrazol‐5‐yl}(thiophen‐3‐yl)methyl]piperidin‐4‐yl}‐2,3‐dihydro‐1 H‐1,3‐benzodiazol‐2‐one]	900 ± 300	1300 ± 400	1100 ± 400	800 ± 200	2700 ± 200	900 ± 300	1200 ± 200	1400 ± 600	600 ± 300	1500 ± 300	800 ± 300
O=c1[nH]c2ccccc2n1C1CCN(C(CCc2ccccc2)c2nnnn2-c2ccc3c(c2)OCCO3)CC1 (centres unmarked) [Compound 5, 1‐(1‐{1‐[1‐(2,3‐dihydro‐1,4‐benzodioxin‐6‐yl)‐1,2,3,4‐tetrazol‐5‐yl]‐3‐phenylpropyl}piperidin‐4‐ yl)‐3 H‐1,3‐benzodiazol‐2‐one]	1600 ± 500	4500 ± 700	3500 ± 1100	1800 ± 400					1000 ± 300		900 ± 200
